The values that follow come from US8685976B2, “Cell adhesion promoting agent and method of promoting cell adhesion” (Kyoto University, priority 2008, dated 2014).

Structures are written as SMILES.

The test system of data set [1] is extracellular signal-regulated kinase (ERK). Put plainly: Western blotting, ERK activation. Format: cell-based, human. The following applies: Jurkat, 6 μM. The method, then: Jurkat cells were treated with adhesamine (6 μM) in a serum-poor culture medium (0.1% FBS) for the indicated periods of time. The treated cell lysates were Western blotted with antibodies against FAK phospho-tyrosine^397 (pFAK), FAK, ERK1/2 phospho-threonine^202/tyrosine^204 (pERK) or ERK. In (B), Jurkat cells were incubated for 5 hours with varied concentrations of adhesamine or poly-L-lysine. The cell lysates were Western blotted with antibodies against FAK phospho-tyrosine^397 or FAK. […] The concentration of adhesamine (1) was 6 μM.
Jurkat cells were maintained in an RPMI medium containing 10% FBS. 5-6 million Jurkat cells were dispensed to a well of a 6-well plate in a final volume of 2 mL, and then incubated at 37° C. for 0-5 hours in the presence of adhesamine or poly-L-lysine. Non-adherent cells were removed and pelleted, and the remaining adherent cells were lysed in a 125 mM Tris-HCl buffer (pH 6.8) containing 4% SDS, 10% glycerol, 0.006% bromophenol blue, and 1.8% β-mercaptoethanol. The adherent cell homogenate was combined with pelleted nonadherent cells from the same well, and the combined sample was boiled for 5 minutes. The samples were separated by SDS-PAGE and electroblotted onto a nitrocellulose membrane. The membranes were blocked in 1% BSA and incubated with primary antibody, and then with horseradish peroxidase-conjugated secondary antibody. […]
For orientation: Immunoblotting shows a protein as a band on a membrane.

Data set [2] concerns Jurkat cells. The data set can be described thus: Cell growth assay (WST-8), Jurkat. Format: cell-based, human. As to the method: In (A) and (B), the cell growth was determined at 24, 48, and 72 hours after the addition of adhesamine (1) (6 μM). The cell growth in the presence of 1% (v/v) DMSO was assigned a value of 100%. The data shown are means±SD for a minimum of three experiments. (C) to (F) show the rearrangement of actin filaments in HepG2 and Jurkat cells in the presence of adhesamine (6 μM). Brightfield images (C and D) and confocal images (E and F) are shown. HepG2 (C and E) or Jurkat (D and F) cells were plated for 5 hours or 3 hours, respectively, and actin cytoskeletal was visualized using rhodamine-labeled phalloidin.
1 μL DMSO solution of adhesamine (1) was added to 96-well plate at a concentration of 600 μM. […] After incubation for indicated time, the cell viability was measured using Cell Counting Kit-8 (Dojindo Molecular Technologies, Inc., Gaithersburg, Md.), which contains a tetrazolium salt (WST-8) that produces a water-soluble formazan dye by NADH dehydrogenases in living cells. […] The optical density (OD) of the solution was read by a microplate reader, using a test wavelength at 450 nm and a reference wavelength at 650 nm. […] Each assay was conducted in triplicate, and the means and standard derivations were calculated for a minimum of three independent experiments.
(In general: Tetrazolium dyes change colour on reduction, which living cells bring about.)

A further data set deals with CHO 745 cells. Put plainly: Cell adhesion assay, CHO 745. It is filed as cell-based. The following applies: CHO 745, 6 μM, vs parental CHO-K1. As to the method:
(A) and (B) show CHO-K1 (wild-type) cells incubated with 1% (v/v) DMSO (A) or 6 μM adhesamine (B). (C) and (D) show CHO 677 incubated with 1% (v/v) DMSO (A) or 6 μM adhesamine (B). […] Cells were seeded onto adhesamine-added or fibronectin-coated plastic wells. The concentrations of adhesamine and fibronectin were 6 μM and 5 μg/mL, respectively. Adhered cells were counted at 5 hours after seeding. Each point represents average±SD.
For CHO wild-type and CHO mutant cell lines, 100 μL of trypsinized cell suspension in a culture medium was added to each well at a density of 2×10^5 cells/mL. After 5-hour incubation at 37° C., non-adhered cells were removed by washing each well with PBS twice, and the attached cells were counted with a Neubauer counting chamber (Digital Bio). To calculate adhesion rates, the cell numbers before washing were assigned a value of 100%. Each assay was conducted in triplicate, and the means and standard derivations were calculated for a minimum of three independent experiments.

For data set [3], the system named is Jurkat cells. Put plainly: Cell adhesion assay by addition, Jurkat cells. It is filed as cell-based, human. The method, then:
1 μL each of an aqueous solution of adhesamine (1), Type I collagen, poly-L-lysine hydrochloride, poly-L-ornithine hydrobromide, and fibronectin at a concentration of 50, 500, and 5000 μg/ml, was added to 96-well plate. 100 μL of HepG2 suspension (4×10^5 cells/mL) was added to each well. After 3-hour incubation at 37° C., non-adherent cells were removed by washing each well with PBS three times, and the attached cells were counted with a Neubauer counting chamber (Digital Bio). For Jurkat cells, 100 μL of cell suspension was added to each well at a density of 1×10^6 cells/ml. After 5-hour incubation at 37° C., non-adhered cells were removed by washing each well with PBS twice, and the attached cells were counted with a Neubauer counting chamber (Digital Bio). To calculate adhesion rates, firstly seeded cell numbers were assigned a value of 100%. As control tests, the same tests were conducted using wells supplied with only 1 μL of DMSO. Each assay was conducted in triplicate, and the means and standard derivations were calculated.
The comparison between adhesamine and its derivatives regarding cell adhesion promotion activity was conducted using Jurkat cells by way of reagent addition assay. 1 μL each of DMSO solutions of the compounds having concentrations of 60, 600, and 6000 μM were added to 96-well plates. The wells were supplied with 100 μL each of Jurkat cell suspensions (1×10^6 cells/mL). After 5-hour incubation at 37° C., non-adhered cells were removed by washing each well with PBS twice, and the attached cells were counted with a Neubauer counting chamber (Digital Bio). To calculate adhesion rates, firstly seeded cell numbers were assigned a value of 100%. As control tests, the same tests were conducted using well plates supplied with only 1 μL of DMSO. Each assay was conducted in triplicate, and the means and standard derivations were calculated.
However, since HepG2 cells have an intrinsic propensity to adhere to plastic tissue-culture plates, a test was conducted to determine whether the same effect was also obtained in the Jurkat cell line and human T-lymphocytes that are floating cells. Remarkably, 30% and 60% of the Jurkat cells attached to a culture plate in the presence of 6 and 60 μM of adhesamine, respectively (FIG. 1D). Removal of adhesamine by washing the plate twice with PBS detached the cells. 93% of Jurkat cells were released from the surface of a culture plate 24 hour after washing (FIG. 2). […] Simply adding adhesamine to the medium promoted adhesion of Jurkat cells onto culture plates, but not to each other.

With `CSc1nc(Cl)c(C=O)c(N2CC[N+]3(CC2)CC[N+]2(CCN(c4nc(SC)nc(Cl)c4C=O)CC2)CC3)n1` [adhesamine], the “time after incubation at which ERK was phosphorylated” value in data set [1] amounted to 5 h. The cytotoxicity result in the data set with Jurkat cells [2] (6 μM) is listed as “no obvious cytotoxicity”. Also, the “growth of the cells” value with Jurkat cells [2] (6 μM, 24, 48, 72 hours, vs 1% DMSO) was “slightly enhanced”. Also, the “response of cell adhesion to adhesamine” value with CHO 745 cells is recorded as “less responsive”. The results for the “Jurkat cells attached to a culture plate” value in the data set with Jurkat cells [3] (6 μM in medium) and in the data set on Jurkat cells [3] (60 μM in medium) were 30% and 60%, respectively. Further, in the data set with Jurkat cells [3] (FIG. 12), the “cell attachment on addition to the medium, compared with coating reagents” value is “significantly greater attachment than addition of the other coating reagents”. The cell-cell adhesion result with Jurkat cells [3] (added to the medium) is reported as “did not induce”.
